Source: ChEMBL document CHEMBL4020789, “Development of 5-hydroxypyrazole derivatives as reversible inhibitors of lysine specific demethylase 1” (Bioorg Med Chem Lett, 2017)

How the values were obtained:
[1] = Apparent permeability of the compound across apical side to basolateral side in human Caco2 cells; format: ADME, cell-based; settings: Caco-2
[2] = Intrinsic clearance in human microsomes assessed […]; format: ADME, Microsome
[3] = Half life in human microsomes; format: ADME, Microsome
[4] = Half life in mouse hepatocytes; format: ADME, cell-based, Hepatocyte
[5] = biological target: Voltage-gated inwardly rectifying potassium channel KCNH2 (Homo sapiens, UniProt Q12809); assay: Inhibition of human ERG by patch clamp assay
Sequence of Voltage-gated inwardly rectifying potassium channel KCNH2 (Q12809 whole entry): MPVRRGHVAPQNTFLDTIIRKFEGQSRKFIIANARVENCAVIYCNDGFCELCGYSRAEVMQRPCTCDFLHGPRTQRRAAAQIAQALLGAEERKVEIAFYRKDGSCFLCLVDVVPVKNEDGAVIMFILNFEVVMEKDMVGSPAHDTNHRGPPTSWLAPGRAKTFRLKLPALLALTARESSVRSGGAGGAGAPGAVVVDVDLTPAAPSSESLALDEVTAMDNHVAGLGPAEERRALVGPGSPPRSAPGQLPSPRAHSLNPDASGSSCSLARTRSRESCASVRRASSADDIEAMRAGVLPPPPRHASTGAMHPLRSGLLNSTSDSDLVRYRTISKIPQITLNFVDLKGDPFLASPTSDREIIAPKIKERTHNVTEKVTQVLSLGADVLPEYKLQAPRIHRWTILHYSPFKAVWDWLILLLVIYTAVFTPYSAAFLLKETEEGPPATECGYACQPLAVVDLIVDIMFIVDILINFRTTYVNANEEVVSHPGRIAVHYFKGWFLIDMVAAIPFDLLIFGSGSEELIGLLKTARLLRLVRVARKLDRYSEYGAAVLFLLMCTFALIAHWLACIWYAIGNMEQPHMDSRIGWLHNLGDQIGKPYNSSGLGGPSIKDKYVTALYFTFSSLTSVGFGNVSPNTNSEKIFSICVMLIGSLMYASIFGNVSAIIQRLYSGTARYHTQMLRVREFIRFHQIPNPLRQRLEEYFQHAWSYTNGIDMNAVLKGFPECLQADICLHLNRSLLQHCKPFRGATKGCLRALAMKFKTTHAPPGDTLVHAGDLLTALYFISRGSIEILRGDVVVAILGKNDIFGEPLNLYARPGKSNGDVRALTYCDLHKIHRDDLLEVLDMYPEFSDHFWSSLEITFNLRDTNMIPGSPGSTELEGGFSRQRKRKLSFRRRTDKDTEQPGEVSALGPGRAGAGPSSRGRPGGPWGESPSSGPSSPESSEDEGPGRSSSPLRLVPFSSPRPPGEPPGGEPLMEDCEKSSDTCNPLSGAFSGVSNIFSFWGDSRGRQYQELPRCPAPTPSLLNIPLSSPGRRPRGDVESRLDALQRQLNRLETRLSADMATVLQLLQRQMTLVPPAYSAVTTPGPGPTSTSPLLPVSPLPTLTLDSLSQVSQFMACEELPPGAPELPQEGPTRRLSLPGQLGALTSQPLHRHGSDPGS

[6] = Clearance in mouse; format: ADME, organism-based; settings: in vivo
[7] = Volume of distribution in mouse; format: ADME, organism-based; settings: in vivo
Mus musculus = assay: AUC in iv dosed mouse; format: ADME, organism-based; settings: in vivo
[8] = Half life in iv dosed mouse; format: ADME, organism-based; settings: in vivo
[9] = Half life in po dosed mouse; format: ADME, organism-based; settings: in vivo
[10] = Fraction unbound in mouse; format: ADME, organism-based; settings: in vivo
[11] = Oral bioavailability in mouse; format: ADME, organism-based; settings: in vivo

Papp A→B [1] [×10⁻⁶ cm/s] | CL [2] [µL/min] | half-life [3] [h] | half-life [4] [h] | clearance [6] [mL/min/kg] | Vd [7] [L/kg] | AUC (Mus musculus) [µg/h/mL] | half-life [8] [h] | half-life [9] [h] | fraction unbound [10] | bioavailability [11] [%] | Structure (SMILES) | IC50 [5] [µM]
< 0.1 | 5.6 | 4.17 |  |  |  |  |  |  |  |  | N#Cc1ccc(-n2nc(C(=O)N3CCC[C@@H](N)C3)cc2OCC(O)C(F)(F)F)cc1 (some centres undefined) | 
0.73 | 6.91 | 3.35 | 1.13 |  |  |  |  |  |  |  | Cc1cc(COc2cc(C(=O)N3CCC[C@@H](N)C3)nn2-c2ccc(C#N)cc2)on1 | 
 |  |  |  |  |  |  |  |  |  |  | Cc1ccc(-c2ncc(OC[C@H]3CCNC3)cc2-c2ccc(C#N)cc2)cc1 | 3
0.415 | 5.6 | 4.17 | 2.02 | 45.7 | 3.1 | 0.405 | 0.9 | 1.3 | 0.19 | 38 | CCc1cc(COc2cc(C(=O)N3CCC[C@@H](N)C3)nn2-c2ccc(C#N)cc2)on1 | 
